Test [1] has as its target T1, Eukaryotic translation initiation factor 5B (Homo sapiens, UniProt O60841).
T1 sequence (O60841 whole entry): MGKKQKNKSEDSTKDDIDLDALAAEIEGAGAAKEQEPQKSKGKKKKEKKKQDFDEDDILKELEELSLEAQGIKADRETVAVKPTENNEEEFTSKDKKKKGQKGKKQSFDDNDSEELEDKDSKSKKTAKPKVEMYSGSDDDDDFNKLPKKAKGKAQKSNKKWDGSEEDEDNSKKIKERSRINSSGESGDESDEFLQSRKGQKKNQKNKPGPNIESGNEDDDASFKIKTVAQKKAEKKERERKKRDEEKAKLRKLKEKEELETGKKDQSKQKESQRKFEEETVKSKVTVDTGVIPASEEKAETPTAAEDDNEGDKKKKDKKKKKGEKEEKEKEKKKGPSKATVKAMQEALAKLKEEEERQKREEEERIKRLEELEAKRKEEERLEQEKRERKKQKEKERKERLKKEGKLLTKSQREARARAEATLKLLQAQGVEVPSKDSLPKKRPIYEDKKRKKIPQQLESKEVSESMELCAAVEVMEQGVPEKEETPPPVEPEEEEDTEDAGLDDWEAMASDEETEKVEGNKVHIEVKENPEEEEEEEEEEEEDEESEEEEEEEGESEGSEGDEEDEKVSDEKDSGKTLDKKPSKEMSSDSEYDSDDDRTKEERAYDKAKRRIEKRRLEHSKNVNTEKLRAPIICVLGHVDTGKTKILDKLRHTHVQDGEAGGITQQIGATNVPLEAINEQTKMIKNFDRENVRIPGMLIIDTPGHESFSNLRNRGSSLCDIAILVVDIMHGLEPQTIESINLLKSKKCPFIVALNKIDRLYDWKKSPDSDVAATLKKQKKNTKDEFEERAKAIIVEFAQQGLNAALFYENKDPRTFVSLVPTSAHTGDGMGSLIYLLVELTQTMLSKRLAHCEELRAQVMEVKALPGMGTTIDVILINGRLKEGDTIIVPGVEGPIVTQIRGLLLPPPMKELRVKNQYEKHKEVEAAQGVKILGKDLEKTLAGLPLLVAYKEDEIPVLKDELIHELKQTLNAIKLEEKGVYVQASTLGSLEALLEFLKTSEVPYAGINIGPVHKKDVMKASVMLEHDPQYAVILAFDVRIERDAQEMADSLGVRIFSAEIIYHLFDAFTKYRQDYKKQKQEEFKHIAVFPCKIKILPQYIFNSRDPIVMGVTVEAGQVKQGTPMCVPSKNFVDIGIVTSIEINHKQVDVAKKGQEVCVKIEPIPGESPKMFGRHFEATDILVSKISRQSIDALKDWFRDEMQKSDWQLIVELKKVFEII

Test [2] concerns the target T2, Receptor-type tyrosine-protein kinase FLT3 (Homo sapiens, UniProt P36888).
T2 sequence (P36888 whole entry): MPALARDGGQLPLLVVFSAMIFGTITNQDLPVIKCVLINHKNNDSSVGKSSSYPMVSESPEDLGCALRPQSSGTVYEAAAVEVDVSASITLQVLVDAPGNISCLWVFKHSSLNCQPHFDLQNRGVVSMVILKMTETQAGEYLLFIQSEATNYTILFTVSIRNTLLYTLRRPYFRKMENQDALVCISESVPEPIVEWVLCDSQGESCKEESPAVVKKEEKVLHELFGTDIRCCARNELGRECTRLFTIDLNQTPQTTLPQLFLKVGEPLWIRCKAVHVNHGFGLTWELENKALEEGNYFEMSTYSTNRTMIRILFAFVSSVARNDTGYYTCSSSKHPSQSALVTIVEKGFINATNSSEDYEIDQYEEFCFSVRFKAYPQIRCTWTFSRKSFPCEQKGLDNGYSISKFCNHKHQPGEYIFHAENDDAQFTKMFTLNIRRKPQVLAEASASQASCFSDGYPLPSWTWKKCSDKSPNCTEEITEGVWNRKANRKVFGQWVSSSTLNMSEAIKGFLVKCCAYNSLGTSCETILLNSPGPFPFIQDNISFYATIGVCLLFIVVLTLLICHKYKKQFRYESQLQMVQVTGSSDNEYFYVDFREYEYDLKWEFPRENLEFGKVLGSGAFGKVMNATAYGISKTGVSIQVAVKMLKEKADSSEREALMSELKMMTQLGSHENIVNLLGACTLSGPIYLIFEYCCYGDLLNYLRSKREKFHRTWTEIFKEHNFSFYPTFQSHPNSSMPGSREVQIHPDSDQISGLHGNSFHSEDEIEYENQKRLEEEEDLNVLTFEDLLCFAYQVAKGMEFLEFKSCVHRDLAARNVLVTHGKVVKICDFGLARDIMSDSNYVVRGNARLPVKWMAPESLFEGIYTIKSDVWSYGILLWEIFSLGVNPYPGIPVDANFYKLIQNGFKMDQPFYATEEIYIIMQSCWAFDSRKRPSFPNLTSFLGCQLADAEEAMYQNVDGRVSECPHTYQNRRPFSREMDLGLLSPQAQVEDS

Test [3] addresses Dual specificity mitogen-activated protein kinase kinase 1 (Homo sapiens, UniProt Q02750).
In test [4] the target is T3, MAP/microtubule affinity-regulating kinase 4 (Homo sapiens, UniProt Q96L34).
T3 sequence (Q96L34 whole entry): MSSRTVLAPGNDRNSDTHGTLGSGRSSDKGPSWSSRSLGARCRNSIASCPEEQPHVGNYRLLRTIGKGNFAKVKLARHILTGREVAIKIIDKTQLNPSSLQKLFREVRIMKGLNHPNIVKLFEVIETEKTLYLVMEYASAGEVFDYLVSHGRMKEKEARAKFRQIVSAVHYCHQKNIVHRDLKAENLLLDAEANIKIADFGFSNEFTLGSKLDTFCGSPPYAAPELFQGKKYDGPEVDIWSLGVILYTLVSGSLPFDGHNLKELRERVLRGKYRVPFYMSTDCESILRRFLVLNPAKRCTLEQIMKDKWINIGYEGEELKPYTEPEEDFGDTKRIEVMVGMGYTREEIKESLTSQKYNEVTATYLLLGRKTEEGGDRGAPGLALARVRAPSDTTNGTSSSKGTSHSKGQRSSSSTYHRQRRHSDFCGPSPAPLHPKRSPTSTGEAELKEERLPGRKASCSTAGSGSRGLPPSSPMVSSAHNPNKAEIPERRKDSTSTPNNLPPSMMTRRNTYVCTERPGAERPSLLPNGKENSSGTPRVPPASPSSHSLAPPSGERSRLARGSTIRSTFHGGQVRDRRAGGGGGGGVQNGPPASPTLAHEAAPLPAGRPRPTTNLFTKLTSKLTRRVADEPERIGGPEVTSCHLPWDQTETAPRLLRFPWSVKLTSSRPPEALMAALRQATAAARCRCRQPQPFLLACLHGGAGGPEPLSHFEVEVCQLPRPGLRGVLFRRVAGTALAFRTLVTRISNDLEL

Calls of active or inactive are those of the source. Cut-off read from the data, not from the text of the source, for most assays here: actives have a measured Kd and inactives only a lower limit. Some results are limits rather than exact numbers.
Note: in the data inactive means no Kd found up to 30 µM.

Chain of Dual specificity mitogen-activated protein kinase kinase 1 (Q02750 whole entry): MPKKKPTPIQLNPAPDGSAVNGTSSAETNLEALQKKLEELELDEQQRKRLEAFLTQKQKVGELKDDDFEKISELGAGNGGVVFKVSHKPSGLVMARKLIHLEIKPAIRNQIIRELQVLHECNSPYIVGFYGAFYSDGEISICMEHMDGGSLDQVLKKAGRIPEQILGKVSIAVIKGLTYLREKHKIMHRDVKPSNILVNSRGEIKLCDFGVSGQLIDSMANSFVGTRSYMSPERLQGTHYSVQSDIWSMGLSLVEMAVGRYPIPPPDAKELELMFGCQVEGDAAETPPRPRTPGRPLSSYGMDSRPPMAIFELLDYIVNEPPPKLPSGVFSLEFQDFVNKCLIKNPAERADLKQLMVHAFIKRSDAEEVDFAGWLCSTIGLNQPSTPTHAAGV

Turning to `COc1cc2ncnc(Nc3ccc(F)c(Cl)c3)c2cc1NC(=O)/C=C/CN1CCCCC1` [DACOMITINIB ANHYDROUS], the Kd in test [1], in test [2], in test [3] and in test [4] was > 30 µM (inactive) in each case.
As for `COCCN1CCN(Cc2ccc(-c3n[nH]c4c3C(=O)c3c(NC(=O)NN5CCOCC5)cccc3-4)cc2)CC1` [RGB-286638], the Kd in test [1] was > 30 µM (inactive); in test [2], 0.323 µM (active); in test [3] it was > 30 µM (inactive); in test [4], > 30 µM (inactive).
`O=C(NOC[C@H](O)CO)c1ccc(F)c(F)c1Nc1ccc(I)cc1F` [MIRDAMETINIB]: the Kd in test [1], in test [2] and in test [4] was > 30 µM (inactive) in each case.
With `CNC(=O)c1cccc(-c2ccc3c(N4CCOC[C@@H]4C)nc(N4CCOC[C@@H]4C)nc3n2)c1` [VISTUSERTIB], the Kd in test [1], in test [2], in test [3] and in test [4] was > 30 µM (inactive) each time.
`Cc1cc(Nc2nc(N[C@@H](C)c3ncc(F)cn3)ncc2Cl)n[nH]1` [AZD-1480]: the Kd in test [1] is > 30 µM (inactive); in test [2] it was 1.68 µM (active); in test [3] it was > 30 µM (inactive); in test [4] it was > 30 µM (inactive).
As for `C=CCN(/C=C1/C(=O)O[C@H](COC)[C@@]2(C)C1=C(O)C(=O)C1=C2[C@H](OC(C)=O)C[C@]2(C)C(=O)CC[C@@H]12)CC=C` [SONOLISIB], the Kd in test [2] and in test [3] was > 30 µM (inactive) in each case.
For `CNC(=O)c1ccc(Nc2ncc(C(F)(F)F)c(NCc3nccnc3N(C)S(C)(=O)=O)n2)cc1` [DEFACTINIB], the Kd is 0.34 µM (active) in test [2], > 30 µM (inactive) in test [3] and > 30 µM (inactive) in test [4].
With `Cc1c(Cn2c(C)nc3c(C(=O)O)cc(N4CCOCC4)cc32)cccc1C(F)(F)F` [GSK-2636771], the Kd in test [2], in test [3] and in test [4] was > 30 µM (inactive) each time.
Consider `Cc1cc(C(=O)Nc2cc(Oc3ccc4nc(NC(=O)C5CC5)cn4n3)ccc2C)n(C)n1` [TAK-593], for which the Kd in test [2], in test [3] and in test [4] was > 30 µM (inactive) in each case.
With `Cn1cc(-c2[nH]c3cc(NC(=O)[C@H](N)C4CCCCC4)cc4c3c2C=NNC4=O)cn1`, the Kd was 0.05 µM (active) in test [2], > 30 µM (inactive) in test [3] and 0.036 µM in test [4].
For `C[C@@H]1COC(Nc2ccc3ncnc(Nc4ccc(OCc5nccs5)c(Cl)c4)c3c2)=N1` [VARLITINIB], in that order: > 30 µM (inactive), > 30 µM (inactive) and > 30 µM (inactive).
On the same counts, the results for `Cc1cc(-c2cc(OC(=O)c3ccccc3)ccc2Cl)cc2nnc(Nc3ccc(OCCN4CCCC4)cc3)nc12` [TG100-801] are > 30 µM (inactive), > 30 µM (inactive) and > 30 µM (inactive).
Regarding `O=C(NC[C@H](O)CO)c1ccncc1Nc1ccc(I)cc1F` [PIMASERTIB], the Kd in test [1], in test [2] and in test [4] was > 30 µM (inactive) throughout.
For `c1cc(OCCN2CCCCC2)cc(-c2n[nH]c3ccc(-c4nc[nH]n4)cc23)c1` [CC-401], the Kd in test [2], in test [3] and in test [4] was > 30 µM (inactive) in each case.
Take `CC[C@@](C)(Nc1ccnc(-c2c[nH]c3ncccc23)n1)C(=O)NCC(F)(F)F` [DECERNOTINIB]: the Kd in test [2] and in test [3] was > 30 µM (inactive) each time.
For `CC(C)(O)CC(=O)NCCn1ccc2ncnc(Nc3ccc(Oc4cccc(C(F)(F)F)c4)c(Cl)c3)c21` [TAK-285], the Kd in test [2], in test [3] and in test [4] was > 30 µM (inactive) each time.
As to `COc1cc2ncnc(Nc3ccc(O)cc3)c2cc1OC` [WHI-P131], the results for the Kd in test [1], in test [2] and in test [3] were > 30 µM (inactive), 1.31 µM (active) and > 30 µM (inactive), respectively.
Take `COc1cc(F)c(F)c(Nc2ccc(I)cc2F)c1NS(=O)(=O)C1(C[C@H](O)CO)CC1` [REFAMETINIB]: the Kd in test [1], in test [2] and in test [4] was > 30 µM (inactive) in each case.
For `C=CC(=O)Nc1cccc(Nc2nc(Nc3ccc(N4CCN(C(C)=O)CC4)cc3OC)ncc2C(F)(F)F)c1` [ROCILETINIB], the Kd in test [1], in test [2] and in test [3] was > 30 µM (inactive) in each case.
On to `COc1cc(Nc2ncc(F)c(Nc3ccc4c(n3)N(COP(=O)(O)O)C(=O)C(C)(C)O4)n2)cc(OC)c1OC` [FOSTAMATINIB], for which the figures for the Kd in test [2], in test [3] and in test [4] were 0.843 µM (active), > 30 µM (inactive) and > 30 µM (inactive), respectively.
For the molecule `NC[C@@](O)(c1ccc(Cl)cc1)c1ccc(-c2cn[nH]c2)cc1` [AT-13148], the Kd in test [1], in test [2] and in test [3] was > 30 µM (inactive) throughout.
`O=S(=O)(c1cccc2c(O)nccc12)N1CCCNCC1` [HYDROXYFASUDIL]: the Kd in test [1], in test [2] and in test [3] was > 30 µM (inactive) throughout.
With `Cc1c(NC(=O)OC[C@@H]2COCCN2)cn2ncnc(Nc3ccc4c(cnn4Cc4cccc(F)c4)c3)c12` [AC-480], the Kd in test [2], in test [3] and in test [4] was > 30 µM (inactive) each time.

By Kd is commonly meant a measure of binding affinity in units of concentration.

Source of the values: ChEMBL document CHEMBL3991601, “The target landscape of clinical kinase drugs” (Science, 2017).
